Laboratory results published in paper PMC7255801, “Disease-associated mutations in the human TRPM3 render the channel overactive via two distinct mechanisms” (eLife, 2020).

Tests used:
Type in all cases: cell-based
[1] = biological target: T1, human M2 muscarinic receptors co-expressed with wild-type hTRPM3_1325 (Homo sapiens, UniProt P08172); assay: M2 muscarinic receptor inhibition of TRPM3 currents, oocytes, wild type channel; settings: read-out: Inhibition of TRPM3 currents induced by 50 μM PregS
T1 construct: expressed in transfected cells; host or cells: Xenopus laevis oocytes (cRNA injection)
T1 sequence (P08172 1-466): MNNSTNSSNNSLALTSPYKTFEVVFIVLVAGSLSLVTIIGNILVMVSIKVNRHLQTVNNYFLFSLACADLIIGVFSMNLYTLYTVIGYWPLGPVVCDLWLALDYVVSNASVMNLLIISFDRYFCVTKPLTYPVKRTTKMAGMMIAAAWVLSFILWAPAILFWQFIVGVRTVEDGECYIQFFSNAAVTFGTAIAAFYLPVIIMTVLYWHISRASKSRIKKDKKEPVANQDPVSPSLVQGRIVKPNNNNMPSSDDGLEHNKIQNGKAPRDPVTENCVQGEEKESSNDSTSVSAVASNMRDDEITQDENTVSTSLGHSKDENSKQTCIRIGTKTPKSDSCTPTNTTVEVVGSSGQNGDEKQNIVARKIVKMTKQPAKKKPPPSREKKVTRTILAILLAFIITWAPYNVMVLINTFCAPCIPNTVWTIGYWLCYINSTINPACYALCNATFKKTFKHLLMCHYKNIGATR
Protocol: (§1) Xenopus laevis oocytes were prepared as described earlier ([Badheka et al., 2015]). All animal procedures were approved by the Institutional Animal Care and Use Committee at Rutgers New Jersey Medical School. In brief, frogs were anesthetized in 0.25% ethyl 3-aminobenzoate methanesulfonate solution (MS222; Sigma-Aldrich); bags of ovaries were removed surgically from the anesthetized frogs. Individual oocytes were obtained by overnight digestion at 16°C in 0.2–0.3 mg/ml type 1A collagenase (Sigma-Aldrich), dissolved in a solution containing 82.5 mM NaCl, 2 mM KCl, 1 mM MgCl2, and […] HEPES, pH 7.4 (OR2 solution). The next day the collagenase containing solution was discarded and the oocytes were washed multiple times with OR2 solution. The oocytes were maintained in OR2 solution supplemented with 1.8 mM CaCl2, 100 IU/ml penicillin, and 100 μg/ml streptomycin at 16°C. cRNA was transcribed from the linearized human TRPM3 (hTRPM3) cDNA clone ([Grimm et al., 2003]), or its mutants in the pGEMSH vector using the mMessage mMachine kit (Thermo Fisher Scientific). cRNA (40 ng) was microinjected into individual oocytes, using a nanoliter-injector system (Warner Instruments). For combined injection of wild-type and mutant TRPM3 for Figures 4E–G, […] total cRNA was injected in a 1:1 ratio. […]

[2] = biological target: T2, human M2 muscarinic receptors co-expressed with hTRPM3_1325 V990M (Homo sapiens, UniProt P08172); assay: M2 muscarinic receptor inhibition of TRPM3 currents, oocytes, V990M mutant; settings: 5 μM ACh, 100 mV
T2 construct: expressed in transfected cells; host or cells: Xenopus laevis oocytes (cRNA injection)
T2 sequence (P08172 1-466): T1 sequence (P08172 1-466)
Protocol: as §1

hTRPM3α2 V992M = biological target: T3, hTRPM3α2 V992M (Homo sapiens, UniProt Q9HCF6, V1015M); assay: Intracellular Ca2+ assay (GCaMP6f) in 96-well plates, HEK293 cells, V992M mutant; settings: very high basal Ca2+ levels
T3 construct: host or cells: HEK293
Protocol: (§2) Intracellular Ca^2+ measurements were performed using a Flexstation-3 96‐well plate reader with rapid well injection (Molecular Devices) as described earlier ([Hughes et al., 2019]) with some modifications. Briefly Human Embryonic Kidney 293 (HEK293) cells were purchased from American Type Culture Collection (ATCC), Manassas, VA, (catalogue number CRL-1573), RRID:CVCL_0045; cell identity was verified by STR analysis by ATCC. HEK293 cells were cultured in MEM supplemented with 10% FBS and 100 IU/ml penicillin plus 100 µg/ml streptomycin in 5% CO2 at 37°C. Additional cell authentication was not performed, but passage number of the cells was monitored, and cells were used up to passage number 25–30 from purchase, when a new batch of cells was thawed with low passage number; cells were tested for the lack of mycoplasma infection. HEK293 cells were transfected with hTRPM3α2-GFP, or its mutants (200 ng) and GCaMP6 (1 μg) using the Effectene reagent (Qiagen). […] GCaMP6 signal was measured at excitation wavelengths 485 nm and fluorescence emission was detected at 525 nm. Sampling interval was 0.86 s and four parallel reads were performed for each condition. […] For measurements at 37°C the MEM medium used to culture the cells was replaced with the measurement solution preheated to 37°C, and the plate was placed in the plate reader warmed to 37°C using its built-in temperature controller.

hTRPM3α2 P1092Q = biological target: T4, hTRPM3α2 P1092Q (Homo sapiens, UniProt Q9HCF6, P1115Q); assay: Intracellular Ca2+ assay (GCaMP6f) in 96-well plates, HEK293 cells, P1092Q mutant; settings: very high basal Ca2+ levels
T4 construct: host or cells: HEK293
Protocol: as §2

T4 sequence (Q9HCF6 1-1709 isoform Q9HCF6-5 P1092Q): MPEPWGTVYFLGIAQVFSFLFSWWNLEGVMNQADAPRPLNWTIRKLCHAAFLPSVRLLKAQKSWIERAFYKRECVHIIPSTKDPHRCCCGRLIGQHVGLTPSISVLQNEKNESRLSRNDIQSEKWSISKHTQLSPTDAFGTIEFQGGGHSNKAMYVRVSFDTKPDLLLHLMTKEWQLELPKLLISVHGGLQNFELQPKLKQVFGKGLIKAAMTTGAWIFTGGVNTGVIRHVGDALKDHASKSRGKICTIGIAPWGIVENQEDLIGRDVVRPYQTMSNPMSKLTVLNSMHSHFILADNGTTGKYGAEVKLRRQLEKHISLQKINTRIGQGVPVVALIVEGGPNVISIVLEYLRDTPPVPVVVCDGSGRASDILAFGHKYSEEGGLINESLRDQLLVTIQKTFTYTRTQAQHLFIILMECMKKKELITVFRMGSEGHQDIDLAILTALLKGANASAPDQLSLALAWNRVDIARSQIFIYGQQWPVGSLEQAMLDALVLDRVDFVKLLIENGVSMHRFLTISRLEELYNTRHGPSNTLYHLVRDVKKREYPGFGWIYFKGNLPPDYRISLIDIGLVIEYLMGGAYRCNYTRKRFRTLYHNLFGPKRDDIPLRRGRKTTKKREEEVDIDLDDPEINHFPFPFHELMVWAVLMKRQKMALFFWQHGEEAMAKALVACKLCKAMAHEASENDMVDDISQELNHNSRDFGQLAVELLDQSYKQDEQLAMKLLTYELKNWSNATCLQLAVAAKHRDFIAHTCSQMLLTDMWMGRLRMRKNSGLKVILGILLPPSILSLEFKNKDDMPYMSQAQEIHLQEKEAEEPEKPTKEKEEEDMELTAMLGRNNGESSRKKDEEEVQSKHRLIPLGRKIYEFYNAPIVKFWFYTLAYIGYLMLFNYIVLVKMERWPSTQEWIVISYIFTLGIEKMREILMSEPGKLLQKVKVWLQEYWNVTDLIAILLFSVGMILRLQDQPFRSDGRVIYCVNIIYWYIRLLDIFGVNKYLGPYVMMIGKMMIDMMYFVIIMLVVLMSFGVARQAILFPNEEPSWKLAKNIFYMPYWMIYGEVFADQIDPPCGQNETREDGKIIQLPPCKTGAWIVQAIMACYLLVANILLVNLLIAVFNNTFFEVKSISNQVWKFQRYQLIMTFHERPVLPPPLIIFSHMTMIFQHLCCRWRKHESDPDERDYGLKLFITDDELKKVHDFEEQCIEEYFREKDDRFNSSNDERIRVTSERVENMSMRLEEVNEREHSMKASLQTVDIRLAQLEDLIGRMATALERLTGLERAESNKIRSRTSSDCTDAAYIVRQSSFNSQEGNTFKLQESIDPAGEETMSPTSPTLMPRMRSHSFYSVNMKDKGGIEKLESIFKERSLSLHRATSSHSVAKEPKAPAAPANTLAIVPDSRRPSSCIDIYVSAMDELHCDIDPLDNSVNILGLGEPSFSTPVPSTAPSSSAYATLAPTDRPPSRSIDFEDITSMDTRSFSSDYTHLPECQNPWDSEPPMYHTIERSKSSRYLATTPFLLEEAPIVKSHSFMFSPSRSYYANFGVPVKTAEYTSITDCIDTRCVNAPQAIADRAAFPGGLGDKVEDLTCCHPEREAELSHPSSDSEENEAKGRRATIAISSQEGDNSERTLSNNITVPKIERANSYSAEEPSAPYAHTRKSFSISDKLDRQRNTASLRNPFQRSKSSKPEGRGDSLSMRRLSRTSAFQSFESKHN
T3 sequence (Q9HCF6 1-1709 isoform Q9HCF6-5 V992M): as the sequence (Q9HCF6 1-1709 isoform Q9HCF6-5 P1092Q) above, with V992M, Q1092P counted along it

CC(=O)OCC[N+](C)(C)C [ACh, acetylcholine]
inhibition at 5 µM [1]: ~50%
Inhibition of TRPM3 currents induced by 50 μM PregS [2]: essentially not inhibited

pregnenolone sulfate [PregS]
Ca2+ response to agonist at 37°C (hTRPM3α2 V992M): not further increased
Ca2+ response to agonist at 37°C (hTRPM3α2 P1092Q): not further increased
